# Source: patent US8940756B2, “Dihydronaphthyridines and related compounds useful as kinase inhibitors for the treatment of proliferative diseases” (Deciphera Pharmaceuticals, Inc., priority 2012, dated 2015)
# Experiments:
# [1] = target: Phospho-KIT (Tyr719) in GIST430 cells (Homo sapiens, UniProt P10721); assay: GIST430 KIT Western Blot; assay type: cell-based; details: 4 hours, read-out: pKIT suppression by western blot analysi GIST430
# GIST430 cells = assay: GIST 430 Cell Proliferation Assay; assay type: cell-based; details: Homo sapiens, resazurin, 115 hours + 5 hours
# Experimental: GIST48, GIST430, and GIST882 cells were obtained from J. Fletcher (Brigham and Women's Hospital, Boston, Mass.). GIST T1 cells were obtained from B. Rubin (Cleveland Clinic, Cleveland, Ohio) and Professor Takahiro Taguchi (Kochi Medical School, Nankoku, Kochi, Japan). Briefly, GIST48 and GIST 882 cells were grown in RPMI 1640 medium supplemented with 15% characterized fetal bovine serum (Invitrogen, Carlsbad, Calif.), 1 unit/mL penicillin G, 1 μg/ml streptomycin, and 0.29 mg/mL L-glutamine at 37° C., 5% CO2, and 95% humidity. GIST430 cells were grown in Ham's F10 medium supplemented with 15% characterized fetal bovine serum (Invitrogen, Carlsbad, Calif.), 30 mg/L bovine pituitary extract (BD Biosciences, San Jose, Calif.), 0.5% Mito+ serum extender (BD Biosciences, San Jose, Calif.), 1 unit/mL penicillin G, 1 μg/ml streptomycin, and 0.29 mg/mL L-glutamine at 37° C., 5% CO2, 95% humidity. GIST T1 cells were grown in DMEM medium supplemented with 10% characterized fetal bovine serum (Invitrogen, Carlsbad, Calif.), 1 unit/mL penicillin G, 1 ng/ml streptomycin, and 0.29 mg/mL L-glutamine at 37° C., 5% CO2, and 95% humidity.
# A serial dilution of test compound was dispensed into a 384-well black clear bottom plate (Corning, Corning, N.Y.). Two thousand five-hundred cells were added per well in 50 μL complete growth medium. Plates were incubated for 115 hours at 37° C., 5% CO2, 95% humidity. At the end of the incubation period 10 μL of a 440 μM solution of resazurin (Sigma, St. Louis, Mo.) in PBS was added to each well and incubated for an additional 5 hours at 37° C., 5% CO2, 95% humidity. Plates were read on a Synergy2 reader (Biotek, Winooski, Vt.) using an excitation of 540 nm and an emission of 600 nm.
# [2] = target: Phospho-KIT (Tyr719) in GIST48 cells (Homo sapiens, UniProt P10721); assay: GIST48 KIT Western Blot; assay type: cell-based; details: 4 hours, read-out: pKIT suppression by western blot analysi GIST48
# Phospho-KIT (Tyr719) in GIST48 cells, sequence (P10721 whole entry V560D/D820A, form open): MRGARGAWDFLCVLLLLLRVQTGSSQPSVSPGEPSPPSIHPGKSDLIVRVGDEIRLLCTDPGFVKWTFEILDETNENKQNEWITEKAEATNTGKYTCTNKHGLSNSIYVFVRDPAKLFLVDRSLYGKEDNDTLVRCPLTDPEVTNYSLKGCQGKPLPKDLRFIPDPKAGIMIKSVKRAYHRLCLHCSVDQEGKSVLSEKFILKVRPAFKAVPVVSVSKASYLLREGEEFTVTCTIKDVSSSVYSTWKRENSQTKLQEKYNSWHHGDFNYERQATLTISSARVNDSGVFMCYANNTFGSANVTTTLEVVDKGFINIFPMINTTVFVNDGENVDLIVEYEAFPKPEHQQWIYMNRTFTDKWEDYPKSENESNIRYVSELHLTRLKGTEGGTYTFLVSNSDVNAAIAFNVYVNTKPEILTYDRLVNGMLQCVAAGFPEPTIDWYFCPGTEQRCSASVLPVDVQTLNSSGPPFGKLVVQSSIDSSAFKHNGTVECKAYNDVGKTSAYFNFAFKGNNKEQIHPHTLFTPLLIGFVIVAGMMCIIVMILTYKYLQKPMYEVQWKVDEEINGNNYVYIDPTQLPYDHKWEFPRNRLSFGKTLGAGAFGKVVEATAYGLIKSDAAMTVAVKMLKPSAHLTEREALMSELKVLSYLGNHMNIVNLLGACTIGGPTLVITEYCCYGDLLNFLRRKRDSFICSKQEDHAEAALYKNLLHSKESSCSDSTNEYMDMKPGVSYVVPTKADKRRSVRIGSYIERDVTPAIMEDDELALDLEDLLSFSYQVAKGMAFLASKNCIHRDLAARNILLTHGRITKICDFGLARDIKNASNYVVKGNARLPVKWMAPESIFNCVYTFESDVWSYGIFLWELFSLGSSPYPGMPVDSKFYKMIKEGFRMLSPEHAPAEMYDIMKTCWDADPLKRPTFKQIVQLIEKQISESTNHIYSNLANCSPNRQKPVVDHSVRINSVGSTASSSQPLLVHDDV
# [3] = target: T1, c-KIT VVDV kinase (V559 and V560 deleted and D816V mutation, Seq ID no. 5) (Homo sapiens, UniProt P10721, D816V/DEL559-560); assay: cKIT-VVDV Kinase Assay; assay type: biochemical; details: enzymatic assay, ATP 200 uM
# T1 construct: This construct contains residues T544-V976 of cKit (except for the D816V mutation and the deletion of residues V559 and V560); GST (N); TEV cleavage site (N); purchased deCODE Biostructures
# T1 sequence (P10721 with tags, fused parts or gaps DEL559-560/D816V): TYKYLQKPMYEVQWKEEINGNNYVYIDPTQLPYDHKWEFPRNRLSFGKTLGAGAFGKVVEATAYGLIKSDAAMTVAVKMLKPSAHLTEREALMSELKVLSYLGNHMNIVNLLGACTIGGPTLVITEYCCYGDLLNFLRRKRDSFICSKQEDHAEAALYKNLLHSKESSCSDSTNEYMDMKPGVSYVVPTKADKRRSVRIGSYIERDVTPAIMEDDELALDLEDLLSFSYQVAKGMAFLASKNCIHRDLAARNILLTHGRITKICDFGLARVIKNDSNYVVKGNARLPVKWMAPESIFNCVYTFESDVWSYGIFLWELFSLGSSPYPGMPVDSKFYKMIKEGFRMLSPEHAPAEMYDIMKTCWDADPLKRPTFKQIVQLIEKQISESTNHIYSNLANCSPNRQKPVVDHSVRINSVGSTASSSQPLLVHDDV
# Experimental: In this assay, the oxidation of NADH (measured by decrease in absorbance at 340 nm) was continuously monitored spectrophotometrically. […] The inhibition reaction was started by mixing serial diluted test compound with the above reaction mixture. The absorption at 340 nm was monitored continuously for 5 hours at 30° C. on Synergy 2 plate reader (BioTech). […] The protein construct was prepared by deCODE Biostructures using procedures known in the art. This construct contains […] of cKit (except for the D816V […]), an N-terminal tag, a GST-fusion sequence and a TEV cleavage site. This construct is identical to Seq ID no. 1 except for the D816V […].
# [4] = target: T2, c-KIT D816V kinase (Seq ID no. 4) (Homo sapiens, UniProt P10721, D816V); assay: c-KIT D816V kinase Assay; assay type: biochemical; details: enzymatic assay, ATP 200 uM
# T2 construct: D816V c-KIT (residues T544-V976 with N-terminal GST fusion, 16 nM); purchased deCODE Biostructures
# T2 sequence (P10721 544-976 D816V): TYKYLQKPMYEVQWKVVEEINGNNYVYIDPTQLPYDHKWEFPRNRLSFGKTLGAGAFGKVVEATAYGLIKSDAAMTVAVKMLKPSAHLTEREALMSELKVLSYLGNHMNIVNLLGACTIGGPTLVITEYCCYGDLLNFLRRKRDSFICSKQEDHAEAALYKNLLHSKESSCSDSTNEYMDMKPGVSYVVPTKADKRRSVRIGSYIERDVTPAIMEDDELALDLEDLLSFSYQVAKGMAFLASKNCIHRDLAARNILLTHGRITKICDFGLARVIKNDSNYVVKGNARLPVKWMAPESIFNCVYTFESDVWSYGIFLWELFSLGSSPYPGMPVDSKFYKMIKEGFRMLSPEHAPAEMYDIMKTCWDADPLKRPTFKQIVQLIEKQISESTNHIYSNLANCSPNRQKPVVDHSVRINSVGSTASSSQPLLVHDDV
# Experimental: (§1) In this assay, the oxidation of NADH (measured by decrease in absorbance at 340 nm) was continuously monitored spectrophotometrically. […] The inhibition reaction was started by mixing serial diluted test compound with the above reaction mixture. The absorption at 340 nm was monitored continuously for 5 hours at 30° C. on Synergy 2 plate reader (BioTech).
# The protein construct was prepared by deCODE Biostructures using procedures known in the art. The construct contains residues T544-V976 of cKit, an N-terminal tag, a GST-fusion sequence and a TEV cleavage site. This construct is identical to Seq ID no. 1 except for the D816V mutation.
# [5] = target: T3, c-KIT V654A kinase (Seq ID no. 2) (Homo sapiens, UniProt P10721, V654A); assay: c-KIT V654A Kinase Assay; assay type: biochemical; details: enzymatic assay, ATP 200 μM
# T3 construct: V654A c-Kit (residues T544-V976 with N-terminal GST fusion, 47 nM); purchased deCODE Biostructures
# T3 sequence (P10721 544-976 V654A): as the sequence (P10721 544-976 D816V) above, with V111A, V273D counted along it
# Experimental: as §1, with “6” for “5”
# The protein construct was prepared by deCODE Biostructures using procedures known in the art. The construct contains residues T544-V976 of cKit, an N-terminal tag, a GST-fusion sequence and a TEV cleavage site. This construct is identical to Seq ID no.
# [6] = target: T4, Phospho-KIT (Tyr719) in GIST882 cells (Homo sapiens, UniProt P10721, K642E); assay: GIST882 KIT Western Blot; assay type: cell-based; details: 4 hours, read-out: pKIT suppression by western blot analysi GIST 882
# T4 construct: endogenous in cells; host or cells: GIST882
# T4 sequence (P10721 26-976 K642E): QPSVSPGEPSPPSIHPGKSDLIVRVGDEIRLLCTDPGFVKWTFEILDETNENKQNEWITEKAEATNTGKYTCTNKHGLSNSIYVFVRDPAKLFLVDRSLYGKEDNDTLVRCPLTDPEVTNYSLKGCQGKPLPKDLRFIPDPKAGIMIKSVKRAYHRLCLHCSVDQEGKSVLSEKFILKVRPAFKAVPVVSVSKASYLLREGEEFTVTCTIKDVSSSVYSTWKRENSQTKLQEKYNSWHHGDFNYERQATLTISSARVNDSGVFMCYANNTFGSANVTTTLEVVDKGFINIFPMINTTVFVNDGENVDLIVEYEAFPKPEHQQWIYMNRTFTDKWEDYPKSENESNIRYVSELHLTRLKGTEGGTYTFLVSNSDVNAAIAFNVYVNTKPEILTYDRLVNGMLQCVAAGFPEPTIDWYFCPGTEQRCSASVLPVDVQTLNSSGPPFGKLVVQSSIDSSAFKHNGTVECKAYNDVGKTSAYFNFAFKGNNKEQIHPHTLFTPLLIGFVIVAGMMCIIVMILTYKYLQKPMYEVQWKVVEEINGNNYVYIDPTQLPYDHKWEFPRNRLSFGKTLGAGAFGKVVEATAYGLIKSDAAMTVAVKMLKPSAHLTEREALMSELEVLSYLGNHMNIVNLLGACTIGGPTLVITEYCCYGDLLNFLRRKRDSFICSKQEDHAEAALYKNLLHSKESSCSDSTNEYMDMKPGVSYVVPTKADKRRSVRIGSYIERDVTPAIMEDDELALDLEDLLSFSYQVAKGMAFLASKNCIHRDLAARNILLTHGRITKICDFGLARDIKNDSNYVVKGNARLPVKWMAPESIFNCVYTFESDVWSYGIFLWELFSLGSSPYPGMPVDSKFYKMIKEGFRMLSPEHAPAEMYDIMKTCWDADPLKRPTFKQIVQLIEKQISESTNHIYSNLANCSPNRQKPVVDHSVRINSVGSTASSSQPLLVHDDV
# Experimental: GIST48, GIST430, and GIST882 cells were obtained from J. Fletcher (Brigham and Women's Hospital, Boston, Mass.). GIST T1 cells were obtained from B. Rubin (Cleveland Clinic, Cleveland, Ohio) and Professor Takahiro Taguchi (Kochi Medical School, Nankoku, Kochi, Japan). […] GIST430 cells were grown in Ham's F10 medium supplemented with 15% characterized fetal bovine serum (Invitrogen, Carlsbad, Calif.), 30 mg/L bovine pituitary extract (BD Biosciences, San Jose, Calif.), 0.5% Mito+ serum extender (BD Biosciences, San Jose, Calif.), 1 unit/mL penicillin G, 1 μg/ml streptomycin, and 0.29 mg/mL L-glutamine at 37° C., 5% CO2, 95% humidity. GIST T1 cells were grown in DMEM medium supplemented with 10% characterized fetal bovine serum (Invitrogen, Carlsbad, Calif.), 1 unit/mL penicillin G, 1 ng/ml streptomycin, and 0.29 mg/mL L-glutamine at 37° C., 5% CO2, and 95% humidity. Cells were allowed to expand until reaching 70-95% confluence at which point they were subcultured or harvested for assay use.
# Two hundred fifty thousand cells were added per well in a 24-well tissue-culture treated plate. Cells were then incubated overnight at 37° C., 5% CO2, 95% humidity. Medium was aspirated, cells were washed with PBS, and serum-free RPMI1640 medium was added. A serial dilution of test compound was added to plates containing cells and plates were incubated for 4 hours at 37° C., 5% CO2, 95% humidity. Cells were washed with PBS, then lysed. Cell lysates were separated by SDS-PAGE and transferred to PVDF. Phospho-KIT (Tyr719) was detected using an antibody from Cell Signaling Technology (Beverly, Mass.), ECL Plus detection reagent (GE Healthcare, Piscataway, N.J.) and a Molecular Devices Storm 840 phosphorimager in fluorescence mode. Blots were stripped and probed for total KIT using an antibody from Santa Cruz Biotech (Santa Cruz, Calif.). IC50 values were calculated using Prism software (Graphpad, San Diego, Calif.).
# [7] = target: T5, c-KIT kinase (Seq ID no. 1) (Homo sapiens, UniProt P10721); assay: c-KIT Kinase Assay (pyruvate kinase/lactate dehydrogenase coupled); assay type: biochemical; details: enzymatic assay, ATP 200 μM; read-out: KIT (wt)
# T5 construct: GST (N); TEV cleavage site (N); purchased deCODE Biostructures
# T5 sequence (P10721 with tags, fused parts or gaps): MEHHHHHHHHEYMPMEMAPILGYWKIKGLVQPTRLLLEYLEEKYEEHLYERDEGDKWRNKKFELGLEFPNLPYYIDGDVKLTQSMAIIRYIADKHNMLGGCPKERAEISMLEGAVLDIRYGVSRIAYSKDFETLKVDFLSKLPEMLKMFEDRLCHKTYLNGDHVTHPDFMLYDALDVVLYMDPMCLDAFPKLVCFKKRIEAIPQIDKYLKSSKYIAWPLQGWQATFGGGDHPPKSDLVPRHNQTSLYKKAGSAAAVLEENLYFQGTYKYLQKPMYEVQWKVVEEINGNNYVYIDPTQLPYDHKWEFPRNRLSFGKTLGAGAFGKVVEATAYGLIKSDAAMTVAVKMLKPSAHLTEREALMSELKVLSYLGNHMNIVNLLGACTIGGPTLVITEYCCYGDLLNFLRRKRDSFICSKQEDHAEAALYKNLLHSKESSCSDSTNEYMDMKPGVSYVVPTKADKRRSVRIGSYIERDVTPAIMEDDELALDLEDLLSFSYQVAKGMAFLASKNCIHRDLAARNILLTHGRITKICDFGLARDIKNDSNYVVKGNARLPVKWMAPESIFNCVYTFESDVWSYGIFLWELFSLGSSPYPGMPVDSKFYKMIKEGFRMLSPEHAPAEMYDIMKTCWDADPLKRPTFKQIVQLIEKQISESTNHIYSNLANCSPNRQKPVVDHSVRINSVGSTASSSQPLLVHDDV
# Experimental: In this assay, the oxidation of NADH (measured by decrease in absorbance at 340 nm) was continuously monitored spectrophotometrically. […] The absorption at 340 nm was monitored continuously for 2 hours at 30° C. on Synergy 2 (BioTeK). The reaction rate was calculated using the 0 to 1 h time frame. Percent inhibition was obtained by comparison of reaction rate with that of a control (i.e. with no test compound). IC50 values were calculated from a series of percent inhibition values determined at a range of inhibitor concentrations using software routines as implemented in the GraphPad Prism software package. The protein construct was prepared by deCODE Biostructures using procedures known in the art. The construct contains […] of cKit, an N-terminal tag, a GST-fusion sequence and a TEV cleavage site.
# [8] = target: T6, c-KIT T670I kinase (Seq ID no. 6) (Homo sapiens, UniProt P10721, T670I); assay: c-KIT T670I Kinase Assay; assay type: biochemical; details: enzymatic assay, ATP 200 uM
# T6 construct: GST (N); TEV cleavage site (N); purchased deCODE Biostructures
# T6 sequence (P10721 544-976 T670I): as the sequence (P10721 544-976 D816V) above, with T127I, V273D counted along it
# Experimental: (§2) In this assay, the oxidation of NADH (measured by decrease in absorbance at 340 nm) was continuously monitored spectrophotometrically. […] The inhibition reaction was started by mixing serial diluted test compound with the above reaction mixture. The absorption at 340 nm was monitored continuously for 5 hours at 30° C. on Synergy 2 plate reader (BioTech). […] The protein construct was prepared by deCODE Biostructures using procedures known in the art. The construct contains […] of cKit, an N-terminal tag, a GST-fusion sequence and a TEV cleavage site. This construct is identical to Seq ID no.
# [9] = target: T7, c-KIT D816H kinase (Seq ID no. 3) (Homo sapiens, UniProt P10721, D816H); assay: c-KIT D816H Kinase Assay; assay type: biochemical; details: enzymatic assay, ATP 200 μM
# T7 construct: GST (N); TEV cleavage site (N); purchased deCODE Biostructures
# T7 sequence (P10721 544-976 D816H): as the sequence (P10721 544-976 D816V) above, with V273H counted along it
# Experimental: as §2, with “6” for “5”, “no. 1 except for the D816H mutation.” for “no.”
# Phospho-KIT (Tyr719) in GIST430 cells, sequence (P10721 with tags, fused parts or gaps DEL560-576/V654A, form open): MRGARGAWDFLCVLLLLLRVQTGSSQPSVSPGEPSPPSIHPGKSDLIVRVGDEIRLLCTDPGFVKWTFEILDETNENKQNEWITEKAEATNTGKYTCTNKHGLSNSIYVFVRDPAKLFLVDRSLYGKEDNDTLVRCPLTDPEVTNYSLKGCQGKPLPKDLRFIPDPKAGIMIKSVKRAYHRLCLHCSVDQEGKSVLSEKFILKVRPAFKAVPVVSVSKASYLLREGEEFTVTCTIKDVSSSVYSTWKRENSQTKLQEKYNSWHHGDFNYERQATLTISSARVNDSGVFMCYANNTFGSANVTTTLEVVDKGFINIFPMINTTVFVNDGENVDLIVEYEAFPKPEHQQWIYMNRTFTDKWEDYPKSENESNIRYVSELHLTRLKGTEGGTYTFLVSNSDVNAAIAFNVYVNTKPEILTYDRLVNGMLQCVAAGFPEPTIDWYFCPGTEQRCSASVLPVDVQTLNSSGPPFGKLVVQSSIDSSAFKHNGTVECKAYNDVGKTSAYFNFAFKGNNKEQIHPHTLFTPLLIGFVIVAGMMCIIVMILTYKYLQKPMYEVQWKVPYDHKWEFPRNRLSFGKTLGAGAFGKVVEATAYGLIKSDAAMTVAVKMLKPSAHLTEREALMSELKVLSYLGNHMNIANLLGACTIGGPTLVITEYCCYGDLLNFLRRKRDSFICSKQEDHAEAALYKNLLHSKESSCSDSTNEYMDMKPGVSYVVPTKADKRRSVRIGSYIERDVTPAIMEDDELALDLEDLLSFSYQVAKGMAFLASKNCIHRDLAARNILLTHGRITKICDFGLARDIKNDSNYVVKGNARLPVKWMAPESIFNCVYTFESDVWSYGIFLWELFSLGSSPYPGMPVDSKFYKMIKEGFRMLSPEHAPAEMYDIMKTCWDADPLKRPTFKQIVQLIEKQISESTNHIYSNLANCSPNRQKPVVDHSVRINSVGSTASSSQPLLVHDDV
IC50 [1] [nM],IC50 [2] [nM],IC50 [3] [nM],IC50 [4] [nM],IC50 [5] [nM],IC50 [6] [nM],IC50 [7] [nM],IC50 [8] [nM],IC50 [9] [nM],SMILES,IC50 (GIST430 cells) [nM]
10 to 100,100 to 1000,–,–,–,–,–,–,–,"CCn1c(=O)c(-c2cc(NC(=O)Nc3ccccc3)c(F)cc2Cl)cc2cnc(NC)cc21 [Example 3, 1-(4-chloro-5-(1-ethyl-7-(methylamino)-2-oxo-1,2-dihydro-1,6-naphthyridin-3-yl)-2-fluorophenyl)-3-phenylurea]",10 to 100
10 to 100,10 to 100,100 to 1000,10 to 100,–,–,–,–,–,"CCn1c(=O)c(-c2cc(NC(=O)Nc3cccc(Cl)c3)c(F)cc2F)cc2cnc(NC)cc21 [Example 17, 1-(3-chlorophenyl)-3-(5-(1-ethyl-7-(methylamino)-2-oxo-1,2-dihydro-1,6-naphthyridin-3-yl)-2,4-difluorophenyl)urea]",–
10 to 100,100 to 1000,–,–,–,–,–,–,–,"CCn1c(=O)c(-c2cc(NC(=O)Nc3ccccc3)c(F)cc2C)cc2cnc(NC)cc21 [Example 23, 1-(5-(1-ethyl-7-(methylamino)-2-oxo-1,2-dihydro-1,6-naphthyridin-3-yl)-2-fluoro-4-methylphenyl)-3-phenylurea]",10 to 100
< 10,100 to 1000,< 10,< 10,10 to 100,10 to 100,< 10,10 to 100,–,"CCn1c(=O)c(-c2cc(NC(=O)Nc3ccccc3)c(F)cc2Br)cc2cnc(NC(C)=O)cc21 [Example 53, 1-(5-(7-acetamido-1-ethyl-2-oxo-1,2-dihydro-1,6-naphthyridin-3-yl)-4-bromo-2-fluorophenyl)-3-phenylurea]",–
–,–,–,< 10,10 to 100,–,< 10,10 to 100,10 to 100,"CC(=O)Nc1cc2c(cn1)cc(-c1cc(NC(=O)Nc3cccc(F)c3)c(F)cc1Cl)c(=O)n2C(C)C [Example 99, N-(3-(2-chloro-4-fluoro-5-(3-(3-fluorophenyl)ureido)phenyl)-1-isopropyl-2-oxo-1,2-dihydro-1,6-naphthyridin-7-yl)acetamide]",–
–,10 to 100,–,10 to 100,10 to 100,–,10 to 100,10 to 100,10 to 100,"Cc1cc(F)c(NC(=O)Nc2ccccc2)cc1-c1cc2cnc(NC(=O)N3CCC3)cc2n(C(C)C)c1=O [Example 109, N-(3-(4-fluoro-2-methyl-5-(3-phenylureido)phenyl)-1-isopropyl-2-oxo-1,2-dihydro-1,6-naphthyridin-7-yl)azetidine-1-carboxamide]",–
–,–,–,< 10,10 to 100,–,< 10,10 to 100,< 10,"CCn1c(=O)c(-c2cc(NC(=O)Nc3ccccc3)c(F)cc2C)cc2cnc(Nc3cnn(C)c3)cc21 [Example 115, 1-(5-(1-ethyl-7-((1-methyl-1H-pyrazol-4-yl)amino)-2-oxo-1,2-dihydro-1,6-naphthyridin-3-yl)-2-fluoro-4-methylphenyl)-3-phenylurea]",–
